Assays:
[1] = test system: fibroblasts (PHF) co-cultured with tumor cells of human Edwing sarcoma (MHH-ES-1); assay: Marker expression (IHC) in PHF co-cultured with MHH-ES-1 tumor cells; format: cell-based; conditions: PHF co-cultured with MHH-ES-1 + SP
Protocol: (§1) All cultures were maintained 48 hours, following which the same cells were included in paraffin blocks for subsequent analysis of the expression of different markers by immunohistochemistry (see Example 1). […] All experiments were carried out sixfold. Analyzed markers in fibroblast cells (stromal cells) were: TGF-α, TGF-β1, TGF-β2, TGF-β3, SPARC, MMP-3, MMP-7, MMP-9, MMP-11, MMP-13 and MMP-14.

[2] = test system: fibroblasts (PHF) co-cultured with tumor cells of human Burkitt lymphoma (CA-46); assay: Marker expression (IHC) in PHF co-cultured with CA-46 tumor cells; format: cell-based; conditions: PHF co-cultured with CA-46 + SP;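 further: percentage of PHF fibroblasts positive for each marker, cultures grown in fresh human plasma from a healthy donor, six replicates, compared with fibroblasts cultured alone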
Protocol: (§2) All cultures were maintained 48 hours, following which the same cells were included in paraffin blocks for subsequent analysis of the expression of different markers by immunohistochemistry (see Example 1). The primary antibodies used to perform immunohistochemical assays and their concentration are detailed in Example 2. All experiments were carried out sixfold. Analyzed markers in fibroblast cells (stromal cells) were: TGF-α, TGF-β1, TGF-β2, TGF-β3, SPARC, MMP-3, MMP-7, MMP-9, MMP-11, MMP-13 and MMP-14.

[3] = test system: fibroblasts (PHF) co-cultured with tumor cells of lung carcinoma (A-427); assay: Marker expression (IHC) in PHF co-cultured with A-427 tumor cells; format: cell-based, human; conditions: co-culture with A-427 lung carcinoma; SP 1 μM; 48 h;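 further: cultures grown in human blood plasma from a healthy donor, value is the percentage of fibroblasts positive for each marker, six replicates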
Protocol: as §1

[4] = test system: fibroblasts (PHF) co-cultured with human fibrosarcoma tumor cells (HT-1080); assay: Marker expression (IHC) in PHF co-cultured with HT-1080 tumor cells; format: cell-based; conditions: co-culture with HT-1080; SP 1 μM; 48 h;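 further: cultures grown in fresh human plasma from a healthy donor, six replicates, value is percent of fibroblasts positive for the marker, compared with fibroblasts cultured without tumor cells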
Protocol: as §1

[5] = test system: fibroblasts (PHF) co-cultured with tumor cells of human gastric adenocarcinoma (23132/87); assay: Marker expression (IHC) in PHF co-cultured with 23132/87 tumor cells; format: cell-based; conditions: co-culture with 23132/87; SP 1 μM; 48 h;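 further: cultures grown in fresh plasma from a healthy human donor, values give the percentage of PHF fibroblasts positive for the marker, each experiment run in six replicates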
Protocol: as §2

[6] = test system: fibroblasts (PHF) co-cultured with tumor cells of human pancreatic adenocarcinoma (CAPAN-1); assay: Marker expression (IHC) in PHF co-cultured with CAPAN-1 tumor cells; format: cell-based; conditions: co-culture with CAPAN-1; SP 1 μM; 48 h;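 further: cultures grown in fresh plasma from a healthy human donor, run in six replicates, value is percent of fibroblasts positive for each marker, compared with fibroblasts cultured alone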
Protocol: as §2

CSCC[C@H](NC(=O)[C@H](CC(C)C)NC(=O)CNC(=O)[C@H](Cc1ccccc1)NC(=O)[C@H](Cc1ccccc1)NC(=O)[C@H](CCC(N)=O)NC(=O)[C@H](CCC(N)=O)NC(=O)[C@@H]1CCCN1C(=O)[C@H](CCCCN)NC(=O)[C@@H]1CCCN1C(=O)[C@@H](N)CCCNC(=N)N)C(N)=O [SP]
cells expressing MMP-3 [1]: 43.5 ± 3.7%
cells expressing MMP-7 [1]: 56.7 ± 4.8%
cells expressing MMP-9 [1]: 54.4 ± 2.4%
cells expressing MMP-11 [1]: 28.4 ± 3.8%
cells expressing MMP-13 [1]: 46.6 ± 3.6%
cells expressing MMP-14 [1]: 49.6 ± 4.2%
cells expressing SPARC [1]: 46.5 ± 3.2%
cells expressing TGF-α [1]: 36.4 ± 3.1%
cells expressing TGF-β1 [1]: 35.5 ± 2.1%
cells expressing TGF-β2 [1]: 42.6 ± 5.1%
cells expressing TGF-β3 [1]: 42.4 ± 1.6%
cells expressing MMP-3 [2]: 63.4 ± 4.3%
cells expressing MMP-7 [2]: 66.1 ± 3.8%
cells expressing MMP-9 [2]: 72.3 ± 4.4%
cells expressing MMP-11 [2]: 67.4 ± 5.8%
cells expressing MMP-13 [2]: 55 ± 6.4%
cells expressing MMP-14 [2]: 59.1 ± 6.3%
cells expressing SPARC [2]: 77 ± 4.2%
cells expressing TGF-α [2]: 61.4 ± 5.1%
cells expressing TGF-β1 [2]: 63.4 ± 4.1%
cells expressing TGF-β2 [2]: 60.5 ± 5.1%
cells expressing TGF-β3 [2]: 71 ± 4.56%
PHF cells expressing MMP-3 [3]: 45.5 ± 1.6%
PHF cells expressing MMP-7 [3]: 54.3 ± 2.2%
PHF cells expressing MMP-9 [3]: 55.5 ± 2.4%
PHF cells expressing MMP-11 [3]: 25.5 ± 1.8%
PHF cells expressing MMP-13 [3]: 44.3 ± 2.5%
PHF cells expressing MMP-14 [3]: 45.1 ± 3.5%
PHF cells expressing SPARC [3]: 47 ± 1.2%
PHF cells expressing TGF-α [3]: 42.3 ± 2.1%
PHF cells expressing TGF-β1 [3]: 33.4 ± 2.1%
PHF cells expressing TGF-β2 [3]: 40.9 ± 2.1%
PHF cells expressing TGF-β3 [3]: 51.4 ± 1.6%
PHF cells expressing MMP-3 [4]: 43.4 ± 2.8%
PHF cells expressing MMP-7 [4]: 57.1 ± 3.8%
PHF cells expressing MMP-9 [4]: 52.3 ± 2.4%
PHF cells expressing MMP-11 [4]: 27.5 ± 3.8%
PHF cells expressing MMP-13 [4]: 45.4 ± 3.6%
PHF cells expressing MMP-14 [4]: 49.3 ± 3.5%
PHF cells expressing SPARC [4]: 51.2 ± 3.3%
PHF cells expressing TGF-α [4]: 42.5 ± 3.1%
PHF cells expressing TGF-β1 [4]: 33.6 ± 3.1%
PHF cells expressing TGF-β2 [4]: 40.7 ± 2.1%
PHF cells expressing TGF-β3 [4]: 51 ± 1.6%
PHF cells expressing MMP-3 [5]: 43.4 ± 1.7%
PHF cells expressing MMP-7 [5]: 56.1 ± 2.8%
PHF cells expressing MMP-9 [5]: 52.3 ± 1.4%
PHF cells expressing MMP-11 [5]: 27.4 ± 2.8%
PHF cells expressing MMP-13 [5]: 45 ± 3.5%
PHF cells expressing MMP-14 [5]: 49.2 ± 4.5%
PHF cells expressing SPARC [5]: 47 ± 1.2%
PHF cells expressing TGF-α [5]: 32.4 ± 1.1%
PHF cells expressing TGF-β1 [5]: 33.5 ± 1.1%
PHF cells expressing TGF-β2 [5]: 40.5 ± 1.1%
PHF cells expressing TGF-β3 [5]: 41 ± 1.56%
PHF cells expressing MMP-3 [6]: 44.4 ± 1.6%
PHF cells expressing MMP-7 [6]: 58.2 ± 2.4%
PHF cells expressing MMP-9 [6]: 56.4 ± 1.5%
PHF cells expressing MMP-11 [6]: 25.3 ± 1.5%
PHF cells expressing MMP-13 [6]: 55 ± 3.6%
PHF cells expressing MMP-14 [6]: 47.2 ± 4.7%
PHF cells expressing SPARC [6]: 49 ± 1.4%
PHF cells expressing TGF-α [6]: 42.4 ± 2.1%
PHF cells expressing TGF-β1 [6]: 37.6 ± 1.4%
PHF cells expressing TGF-β2 [6]: 42.4 ± 6.1%
PHF cells expressing TGF-β3 [6]: 43 ± 2.6%

From US20180071317A1, “USE OF AGENTS THAT ALTER THE PERITUMORAL ENVIRONMENT FOR THE TREATMENT OF CANCER” (SERVICIO ANDALUZ DE SALUD, priority 2011, published 2018)
